Data reported in ChEMBL document CHEMBL1134970, “The TosMIC approach to 3-(oxazol-5-yl) indoles: application to the synthesis of indole-based IMPDH inhibitors” (Bioorg Med Chem Lett, 2002).

Assays:
[1] = system: CCRF-CEM; experiment: Inhibitory concentration against T-cell proliferation response in a CEM cell line (BMS-337197,CEM); format: functional, cell-based; conditions: Homo sapiens
[2] = target: Inosine-5'-monophosphate dehydrogenase 2 (Homo sapiens, UniProt P12268); experiment: Inhibitory concentration against Inosine-5'-monophosphate dehydrogenase 2 was determined

Structure (SMILES) | IC50 [1] | IC50 [2]
Cc1cccc(NC(=O)Nc2ccc3c(-c4cnco4)cn(C)c3c2)c1 | – | > 5000 nM
Cc1ccc(NC(=O)Nc2ccc3c(-c4cnco4)cn(C)c3c2)cc1 | – | > 5000 nM
Cc1cccc(NC(=O)Nc2ccc3c(-c4cnco4)c[nH]c3c2)c1 | > 10000 nM | 200 nM
Cc1ccc(NC(=O)Nc2ccc3c(-c4cnco4)c[nH]c3c2)cc1 | > 10000 nM | 11 nM
O=C(Nc1ccccc1)Nc1ccc2c(-c3cnco3)c[nH]c2c1 | > 10000 nM | 40 nM
Cc1ccccc1NC(=O)Nc1ccc2c(-c3cnco3)c[nH]c2c1 | 9700 nM | 35 nM
Cc1ccc(-c2cnc(Nc3ccc4c(-c5cnco5)c[nH]c4c3)o2)cc1 | > 10000 nM | 205 nM
COc1cc(Nc2ncc(-c3ccccc3N(C)C(=O)CN3CCOCC3)o2)ccc1-c1cnco1 | 590 nM | 16 nM
COc1cc(NC(=O)Nc2cccc(C)c2)ccc1-c1cnco1 | 1000 nM | 19 nM

Further lines, results first:

IC50 [1] | IC50 [2] | Structure (SMILES)
1000 nM | 7 nM | CC(=O)OCC(=O)N(C)c1ccccc1-c1cnc(Nc2ccc3c(-c4cnco4)c[nH]c3c2)o1
> 10000 nM | 93 nM | c1ccc(-c2cnc(Nc3ccc4c(-c5cnco5)c[nH]c4c3)o2)cc1
3000 nM | 35 nM | CN(C(=O)CN1CCOCC1)c1ccccc1-c1cnc(Nc2ccc3c(-c4cnco4)c[nH]c3c2)o1
> 10000 nM | 38 nM | Cc1ccccc1-c1cnc(Nc2ccc3c(-c4cnco4)c[nH]c3c2)o1
1500 nM | 77 nM | Cc1cccc(-c2cnc(Nc3ccc4c(-c5cnco5)c[nH]c4c3)o2)c1
